Like-named read-outs stand apart in the source and are kept apart here.

The subject of one assay is Zymoseptoria tritici. The assay is described as follows: Fungicidal activity: leaf blotch of wheat (SEPTTR), wheat seedlings, booth sprayer to run-off or track spray. In kind it is in vivo. Conditions: High-Volume Cereal Activity at 100 ppm. The protocol: All fungicides were evaluated using the aforementioned method for their activity vs. all target diseases. Wheat leaf blotch and brown rust activity were also evaluated using track spray applications, in which case the fungicides were formulated as EC formulations, containing 0.1% Trycol 5941 in the spray solutions. Wheat plants (variety Yuma) were grown from seed in a greenhouse in 50% mineral soil/50% soil-less Metro mix until the first leaf was fully emerged, with 7-10 seedlings per pot. These plants were inoculated with an aqueous spore suspension of Zymoseptoria tritici either prior to or after fungicide treatments. After inoculation the plants were kept in 100% relative humidity (one day in a dark dew chamber followed by two to three days in a lighted dew chamber at 20° C.) to permit spores to germinate and infect the leaf. The plants were then transferred to a greenhouse set at 20° C. for disease to develop. When disease symptoms were fully expressed on the 1st leaves of untreated plants, infection levels were assessed on a scale of 0 to 100 percent disease severity. Percent disease control was calculated using the ratio of disease severity on treated plants relative to untreated plants.

A further assay deals with Puccinia triticina. The assay is described as follows: Fungicidal activity: wheat brown rust (PUCCRT), wheat seedlings, booth sprayer to run-off or track spray. Conditions: High-Volume Cereal Activity at 100 ppm. In kind it is in vivo. The protocol:
All fungicides were evaluated using the aforementioned method for their activity vs. all target diseases. Wheat leaf blotch and brown rust activity were also evaluated using track spray applications, in which case the fungicides were formulated as EC formulations, containing 0.1% Trycol 5941 in the spray solutions. Wheat plants (variety Yuma) were grown from seed in a greenhouse in 50% mineral soil/50% soil-less Metro mix until the first leaf was fully emerged, with 7-10 seedlings per pot. These plants were inoculated with an aqueous spore suspension of Puccinia triticina either prior to or after fungicide treatments. […] The plants were then transferred to a greenhouse set at 24° C. for disease to develop. Fungicide formulation, application and disease assessment followed the procedures as described in the Example A.

The mark [1] stands for this setting: 3DC (Day Curative), read-out: SEPTTR 3DC.
The mark [2] stands for this setting: 24 h, 1 Day Protectant, read-out: PUCCRT 1DP.
The mark [3] stands for this setting: 3DC (Day Curative), read-out: PUCCRT 3DC.
The mark [4] stands for this setting: 24 h, 1 Day Protectant, read-out: SEPTTR 1DP.

Regarding `CCCC[C@@H]([C@H](C)OC(=O)[C@H](C)NC(=O)c1nccc(OC)c1O)[C@H](CC)Oc1ccccc1` [compound 115], the pest or weed control at 100 ppm in the assay with Zymoseptoria tritici (setting [1]), in the assay on Puccinia triticina (setting [2]) and with Puccinia triticina (setting [3]) was 80 to 100% each time.
Take `CCCC[C@@H]([C@H](C)OC(=O)[C@H](C)NC(=O)c1nccc(OC)c1O)[C@@H](CC)Oc1ccccc1` [compound 116]: the pest or weed control at 100 ppm with Zymoseptoria tritici (setting [4]) is 0 to 80%; with Zymoseptoria tritici (setting [1]), 0 to 80%; with Puccinia triticina (setting [2]), 0 to 80%; with Puccinia triticina (setting [3]) it was 80 to 100%.
With `CC[C@H](Oc1ccccc1)[C@@H](Cc1ccccc1)[C@H](C)OC(=O)[C@H](C)NC(=O)c1nccc(OC)c1O` [compound 117], the pest or weed control at 100 ppm in the assay on Zymoseptoria tritici (setting [4]) lay within 80 to 100%; with Zymoseptoria tritici (setting [1]), 0 to 80%; in the assay with Puccinia triticina (setting [2]), 80 to 100%; in the assay on Puccinia triticina (setting [3]), 80 to 100%.
For `CC[C@@H](Oc1ccccc1)[C@@H](Cc1ccccc1)[C@H](C)OC(=O)[C@H](C)NC(=O)c1nccc(OC)c1O` [compound 118], the pest or weed control at 100 ppm with Zymoseptoria tritici (setting [4]) fell in the range of 80 to 100%; in the assay with Zymoseptoria tritici (setting [1]) it was 0 to 80%; with Puccinia triticina (setting [2]), 0 to 80%; in the assay on Puccinia triticina (setting [3]), 80 to 100%.
Regarding `CCCC[C@H](c1ccccc1)[C@H](C)OC(=O)[C@H](C)NC(=O)c1nccc(OC)c1O` [compound 120], the pest or weed control at 100 ppm in the assay on Zymoseptoria tritici (setting [1]) and with Puccinia triticina (setting [3]) was 0 to 80% each time.
For `COc1ccnc(C(=O)N[C@@H](C)C(=O)O[C@@H](C)[C@H](Cc2ccc(Cl)cc2)c2ccccc2)c1O` [compound 121], the pest or weed control at 100 ppm in the assay with Zymoseptoria tritici (setting [4]) was 80 to 100%; with Zymoseptoria tritici (setting [1]) it was 0 to 80%; in the assay on Puccinia triticina (setting [2]) it was 80 to 100%; in the assay on Puccinia triticina (setting [3]), 0 to 80%.
In the case of `COc1ccnc(C(=O)N[C@@H](C)C(=O)O[C@@H](C)[C@H](CCC(C)C)c2ccccc2)c1O` [compound 123], the pest or weed control at 100 ppm in the assay with Zymoseptoria tritici (setting [1]) fell in the range of 80 to 100%; in the assay on Puccinia triticina (setting [3]) it was 0 to 80%.
As to `COc1ccnc(C(=O)N[C@@H](C)C(=O)O[C@@H](C)[C@@H](COc2ccccc2)Cc2ccccc2)c1O` [compound 125], the pest or weed control at 100 ppm in the assay on Zymoseptoria tritici (setting [4]), with Zymoseptoria tritici (setting [1]), in the assay with Puccinia triticina (setting [2]) and with Puccinia triticina (setting [3]) was 0 to 80% throughout.
`COc1ccnc(C(=O)N[C@@H](C)C(=O)O[C@@H](C)[C@@H](COc2ccc(Cl)cc2Cl)Cc2ccccc2)c1O` [compound 126]: the pest or weed control at 100 ppm in the assay on Zymoseptoria tritici (setting [4]) and in the assay with Puccinia triticina (setting [2]) was 0 to 80% throughout.
On to `COc1ccnc(C(=O)N[C@@H](C)C(=O)O[C@@H](C)[C@H](Cc2ccc(Cl)c(Cl)c2)c2ccccc2)c1O` [compound 127], for which the pest or weed control at 100 ppm in the assay on Zymoseptoria tritici (setting [4]), in the assay with Zymoseptoria tritici (setting [1]) and in the assay with Puccinia triticina (setting [2]) was 0 to 80% each time.
In the case of `COc1ccnc(C(=O)N[C@@H](C)C(=O)O[C@@H](C)[C@H](Cc2ccc(C)cc2)c2ccccc2)c1O` [compound 128], the values for the pest or weed control at 100 ppm in the assay with Zymoseptoria tritici (setting [4]), in the assay with Zymoseptoria tritici (setting [1]) and in the assay on Puccinia triticina (setting [2]) were 80 to 100%, 0 to 80% and 80 to 100%, respectively.
In the case of `COc1ccnc(C(=O)N[C@@H](C)C(=O)O[C@@H](C)[C@H](Cc2ccc(F)cc2)c2ccccc2)c1O` [compound 129], the pest or weed control at 100 ppm in the assay on Zymoseptoria tritici (setting [4]) fell in the range of 80 to 100%; in the assay with Zymoseptoria tritici (setting [1]), 0 to 80%; with Puccinia triticina (setting [2]) it was 80 to 100%; in the assay with Puccinia triticina (setting [3]), 0 to 80%.
On to `COc1ccnc(C(=O)N[C@@H](C)C(=O)O[C@@H](C)[C@H](Cc2ccc3ccccc3c2)c2ccccc2)c1O` [compound 130], for which the pest or weed control at 100 ppm in the assay on Zymoseptoria tritici (setting [4]) lay in the range of 80 to 100%; with Zymoseptoria tritici (setting [1]), 0 to 80%; with Puccinia triticina (setting [2]), 80 to 100%.
Take `COc1ccnc(C(=O)N[C@@H](C)C(=O)O[C@@H](C)[C@@H](COCc2ccccc2)Cc2ccc(F)cc2)c1O` [compound 131]: the pest or weed control at 100 ppm in the assay with Zymoseptoria tritici (setting [4]) fell in the range of 80 to 100%; in the assay with Zymoseptoria tritici (setting [1]), 0 to 80%; in the assay on Puccinia triticina (setting [2]) it was 80 to 100%; in the assay on Puccinia triticina (setting [3]), 0 to 80%.
Regarding `COc1ccnc(C(=O)N[C@@H](C)C(=O)O[C@@H](C)[C@@H](COCc2ccccc2)Cc2ccccc2)c1O` [compound 132], the pest or weed control at 100 ppm with Zymoseptoria tritici (setting [4]) was in the range of 0 to 80%; in the assay on Zymoseptoria tritici (setting [1]), 80 to 100%; in the assay on Puccinia triticina (setting [2]), 80 to 100%; in the assay with Puccinia triticina (setting [3]) it was 80 to 100%.
In the case of `COc1ccnc(C(=O)N[C@@H](C)C(=O)O[C@@H](C)[C@H](Cc2ccc(F)cc2)C(C)(C)OCc2ccccc2)c1O` [compound 133], the pest or weed control at 100 ppm in the assay with Zymoseptoria tritici (setting [4]) fell in the range of 0 to 80%; in the assay with Zymoseptoria tritici (setting [1]) it was 0 to 80%; with Puccinia triticina (setting [2]), 80 to 100%.
Consider `COc1ccnc(C(=O)N[C@@H](C)C(=O)O[C@@H](C)[C@H](Cc2ccccc2)C(C)(C)OCc2ccccc2)c1O` [compound 134], for which the pest or weed control at 100 ppm with Zymoseptoria tritici (setting [4]) is 80 to 100%; in the assay on Zymoseptoria tritici (setting [1]), 0 to 80%; in the assay on Puccinia triticina (setting [2]), 80 to 100%; in the assay with Puccinia triticina (setting [3]), 0 to 80%.
In the case of `COC[C@@H](Cc1ccc(F)cc1)[C@H](C)OC(=O)[C@H](C)NC(=O)c1nccc(OC)c1O` [compound 135], the pest or weed control at 100 ppm in the assay with Zymoseptoria tritici (setting [4]) lay within 0 to 80%; with Zymoseptoria tritici (setting [1]) it was 0 to 80%; in the assay on Puccinia triticina (setting [2]), 80 to 100%; with Puccinia triticina (setting [3]), 0 to 80%.
For `COc1ccnc(C(=O)N[C@@H](C)C(=O)O[C@@H](C)[C@H](Cc2ccc(F)cc2)C(C)(C)OC)c1O` [compound 136], the pest or weed control at 100 ppm in the assay on Zymoseptoria tritici (setting [1]) was in the range of 80 to 100%; with Puccinia triticina (setting [2]), 0 to 80%; in the assay on Puccinia triticina (setting [3]), 0 to 80%.
`COc1ccnc(C(=O)N[C@@H](C)C(=O)O[C@@H](C)[C@H](Cc2ccccc2)C(C)(C)OC)c1O` [compound 137]: the pest or weed control at 100 ppm in the assay with Zymoseptoria tritici (setting [1]) and with Puccinia triticina (setting [3]) was 0 to 80% throughout.
Consider `COc1ccnc(C(=O)N[C@@H](C)C(=O)O[C@@H](C)[C@H](Cc2ccc(F)cc2)C(C)(C)OCc2ccc(F)cc2)c1O` [compound 139], for which the pest or weed control at 100 ppm with Zymoseptoria tritici (setting [4]), with Zymoseptoria tritici (setting [1]) and in the assay on Puccinia triticina (setting [2]) was 0 to 80% each time.
On to `COc1ccnc(C(=O)N[C@@H](C)C(=O)O[C@@H](C)[C@@H](COCCC(C)C)Cc2ccc(F)cc2)c1O` [compound 140], for which the pest or weed control at 100 ppm in the assay on Zymoseptoria tritici (setting [4]), in the assay with Zymoseptoria tritici (setting [1]) and in the assay on Puccinia triticina (setting [3]) was 0 to 80% in each case.
Take `COc1ccnc(C(=O)N[C@@H](C)C(=O)O[C@@H](C)[C@@H](COCCC(C)C)Cc2ccccc2)c1O` [compound 141]: the pest or weed control at 100 ppm lay in the range of 80 to 100% in the assay on Zymoseptoria tritici (setting [4]), 0 to 80% in the assay on Zymoseptoria tritici (setting [1]), 0 to 80% in the assay with Puccinia triticina (setting [2]) and 0 to 80% with Puccinia triticina (setting [3]).
As to `CCCOC[C@@H](Cc1ccc(OC)cc1)[C@H](C)OC(=O)[C@H](C)NC(=O)c1nccc(OC)c1O` [compound 143], the pest or weed control at 100 ppm in the assay on Zymoseptoria tritici (setting [4]) lay in the range of 80 to 100%; in the assay on Zymoseptoria tritici (setting [1]), 0 to 80%; in the assay on Puccinia triticina (setting [2]) it was 80 to 100%; in the assay on Puccinia triticina (setting [3]) it was 0 to 80%.
As for `CCCOC[C@@H](Cc1ccc(OC)c(Cc2ccccc2)c1)[C@H](C)OC(=O)[C@H](C)NC(=O)c1nccc(OC)c1O` [compound 145], the pest or weed control at 100 ppm in the assay with Zymoseptoria tritici (setting [4]) was in the range of 80 to 100%; in the assay on Zymoseptoria tritici (setting [1]) it was 0 to 80%; in the assay with Puccinia triticina (setting [2]) it was 0 to 80%.
Turning to `CCCOC(C)(C)[C@@H](Cc1ccc(OC)c(Cc2ccccc2)c1)[C@H](C)OC(=O)[C@H](C)NC(=O)c1nccc(OC)c1O` [compound 146], the pest or weed control at 100 ppm in the assay on Zymoseptoria tritici (setting [4]), in the assay with Zymoseptoria tritici (setting [1]) and with Puccinia triticina (setting [2]) was 0 to 80% throughout.
As for `COc1ccnc(C(=O)N[C@@H](C)C(=O)OC(C)C(Cc2ccccc2)Cc2ccccc2)c1O` (stereo partly drawn) [compound 147], the pest or weed control at 100 ppm in the assay with Zymoseptoria tritici (setting [4]) and with Puccinia triticina (setting [2]) was 80 to 100% each time.
As for `COc1ccnc(C(=O)N[C@H](C(=O)OC(C)C(Cc2ccccc2)Cc2ccccc2)C(C)C)c1O` (stereo partly drawn) [compound 148], the pest or weed control at 100 ppm with Zymoseptoria tritici (setting [4]) and in the assay on Puccinia triticina (setting [2]) was 0 to 80% in each case.
`CC[C@H](NC(=O)c1nccc(OC)c1O)C(=O)OC(C)C(Cc1ccccc1)Cc1ccccc1` (stereo partly drawn) [compound 149]: the pest or weed control at 100 ppm with Zymoseptoria tritici (setting [4]) and in the assay on Puccinia triticina (setting [2]) was 80 to 100% in each case.
For the compound `COc1ccnc(C(=O)N[C@@H](C)C(=O)OC(C)C(Cc2cccc(F)c2)Cc2cccc(F)c2)c1O` (stereo partly drawn) [compound 150], the pest or weed control at 100 ppm in the assay on Zymoseptoria tritici (setting [4]) and with Puccinia triticina (setting [2]) was 80 to 100% each time.
In the case of `COc1ccnc(C(=O)N[C@@H](C)C(=O)OC(C)C(Cc2ccc(F)cc2)Cc2ccc(F)cc2)c1O` (stereo partly drawn) [compound 151], the pest or weed control at 100 ppm in the assay with Zymoseptoria tritici (setting [4]) and in the assay with Puccinia triticina (setting [2]) was 80 to 100% throughout.

(Values after US10173971B2, “Picolinamides with fungicidal activity” (DOW AGROSCIENCES LLC, priority 2014, dated 2019).)
